# In patent US20090098096A1, “AGENT FOR CORRECTING STRESS-INDUCING NEURO-MEDIATOR, NEURO-ENDOCRINE AND METABOLIC DISTURBANCES AND METHOD FOR PREVENTING AND TREATING CONCOMITANT PATHOLOGICAL CONDITIONS” (priority 2005, published 2009):
# Where no end group is shown, it is not given here.
# Tests used:
# [1] = system: mitochondrial respiratory chain; assay: mitochondrial respiratory chain and oxidative phosphorylation on rat brain preparations; type: biochemical
# Source text: DSIP and its related peptides play a unique role in the maintenance of the structural-metabolic homeostasis not only on the level of different organs and tissues but also on the sub-cellular level of the organism. […] Such a decrease of rigidity of biological membranes enables the normalization of membrane functions, that have been disturbed by manifestations of the metabolic syndrome, such as hypertonic disease, hyperinsulinemia, misbalance of the endocrinal system, aging, etc.
# GABAA-receptor complex = assay: pharmacological profiling on convulsive and comatose models; parameters: species or system mice; conditions: mouse, in vivo
# Source text: Particularly, the evaluation of the GABA-effecting component in the mechanism of action of the peptidic composition “Deltaran” based on FDSIP has been performed using the “pharmacological profiling” method in animals (mice). […] Also evidence has been found for a modulation of the barbiturate binding site of the GABA-benzodiazepine-ionophore-receptor complex by Deltaran and DSIP and data have been obtained concerning regulatory effect on chloride ionophore. The regulatory influences are probably realized via the peptide fragment of the GABA-benzodiazepine-ionophore-receptor complex (15).
# [2] = system: antioxidant systems of the liver, the brain and the blood; conditions: under normal and under stress conditions; cited from earlier work
# [3] = system: plasma membranes of human blood cells (erythrocytes and thrombocytes) and synaptosomal membranes (mice brain); conditions: on the surface and internal non-polar region; cited from earlier work
# [4] = system: lipids of various biological membranes (synaptosome, mitochondrial, erythrocyte and other); assay: peroxidation of lipids of biological membranes; type: biochemical; conditions: by modulation of the activity of antioxidant enzymes
# Source text: The direct effect of the peptide on different cell membrane types was shown which may provide an additional normalizing cell functions effect. Particularly FDSIP may provide a stabilizing effect to the mitochondrial cell apparatus that also is capable of reducing cell damage by normalizing the cell respiration processes, which has been shown by us in experiments.
sequence,measurement,setting,value
"WAGGDASGE [DSIP, endogenous nonapeptide, delta-sleep inducing peptide]",efficacy of the oxidative phosphorylation,[1],significant increase
same,barbiturate binding site of the GABA-benzodiazepine-ionophore-receptor complex,GABAA-receptor complex,modulation
same,"capacity of the antioxidant systems of the liver, the brain and the blood",[2],credibly increases
same,mobility of structural membrane domains,[3],increased mobility
same,action on the peroxidation of lipids of various biological membranes,[4],inhibitory and preventive action
